Measurements from patent publication EP1708692B1, “DICHLOROACETATE IN COMBINATION WITH AN INOTROPE FOR CARDIOPROTECTION” (The Governors of the University of Alberta, priority 2004, dated 2005).
Values joined by “and” are separate entries in the source; they are usually repeats but may differ in a detail not shown here. Equal entries are not always repeated. Where two headings read alike, the source gives them in different places.

Columns and labels:
[1] = Plasma DCA levels by HPLC after bolus, adult CABG patients (Example A); format: in vivo; details: human, 50 mg/kg, following infusion of 50mg/kg Na+ Dichloroacetate via cardiopulmonary bypass pump, 1 hour following administration, n=8
Description: (§1) DCA or saline was administered to 18 patients undergoing elective cardiac bypass grafting surgery (CABG) in a double blinded randomized manner DCA (50mg/kg in 100 ml of saline) or placebo was injected into the aortic root, immediately prior to removing aortic cross clamp. Based on the pharmacokinetics of DCA, we anticipated that this would produce a plasma concentration of approximately 1 mM. The study consisted of 8 DCA-treated patients and 10 placebo-treated patients.
(§2) The intervention involved DCA (50mg/kg) or placebo injected into the aortic root immediately prior to removing aortic cross clamp. The coded solution was made such that a dose of lml/kg provides the appropriate dose of DCA or placebo. Based on the pharmacokinetics of DCA, this was expected to result in a plasma level of DCA in the therapeutic range of (1mM). All blood samples were analyzed by HPLC for DCA concentration.
Plasma samples were processed for DCA levels using a high performance liquid chromatography (HPLC) technique that separated the DCA from other plasma constituents. In brief, 20 µl of plasma sample was injected into a Beckman Gold HPLC containing a IonoBpher 5A column (250x4.6mm LxID) and a AX Guard Column. […] The flow rate of the HPLC was set at 3.0 ml/min and the DCA eluted from the column was detected by comparing DCA elution times to acetate, monochloroacetate, and trichloroacetate standards. […]

[2] = system: patients undergoing elective cardiac bypass grafting surgery (CABG); assay: Mortality in adult CABG study (Example A); format: in vivo, human; details: 50mg/kg bolus, 8 DCA-treated adult patients
Description: as §1, §2

[3] = system: pediatric patients requiring heart surgery to connect complex congenital heart lesions; assay: Clinical outcome after single DCA bolus: Inotrope Score, ICU time, ventilator time, echocardiography (Example B); format: in vivo; details: 50mg/kg bolus, placebo patients 26%
Description: This study was a randomized, placebo-controlled, double blinded, single surgeon, study of the use of DCA in 40 high-risk pediatric patients requiring heart surgery to connect complex congenital heart lesions.
In this trial, 40 children were recruited to participate in a single surgeon study, of which 18 received DCA and 22 received placebo. The 1995 power calculations were based on separation of the CPB-1 trial of n = 40 patients.
as §2, with “in” for “in a”, “levels” for “level”
In both the operating room at the end of cardiopulmonary bypass and in the intensive care unit, parenteral drugs were scored on an hourly basis with 1 point allotted for each level for each bolus or infusion given within the previous hour for the first 24 hours post-operatively. Thus, at the end of 24 hours high scores indicated poorer cardiac function.

[4] = Plasma DCA levels by HPLC, bolus and infusion protocol (Example C); format: in vivo, pediatric patients; details: human
Description: (§3) DCA (50mg/kg) or placebo was injected into the aortic root immediately prior to removing aortic cross clamp. The coded solutions were made such that a dose of 1 ml/kg provided either a DCA therapeutic level of 1mM plasma concentration of DCA, or a placebo solution. Immediately thereafter, an infusion of DCA at 25mg/kg/hr or placebo in the same volume was initiated and run for 24 hours. Based on the pharmacokinetics of DCA, this was expected to maintain plasma levels of DCA in the therapeutic range of (0.2-1mM). However, the plasma concentrations of DCA were below 1mM after the first hour interval, and that the 24 hour plasma concentrations were elevated above 1mM DCA levels at the 24 hour interval, a decision was made to modify the dosing protocol. This change in dosing protocol was approved by the Ethics Committee, but not implemented until patient number 24. All blood samples were analyzed by HPLC for DCA concentration.
(§4) DCA (100mg/kg) or placebo was injected into the aortic root immediately prior to removing aortic cross clamp. The coded solutions were made such that a dose of 1 ml/kg provided either a DCA therapeutic level of 1mM plasma concentration of DCA, or a placebo solution. Immediately thereafter, an infusion of DCA at 12.5mg/kg/hr or placebo in the same volume was initiated and run for 24 hours. Based on the pharmacokinetics of DCA, this was expected to maintain plasma levels of DCA in the therapeutic range of (0.2-1mM). All blood samples were analyzed by HPLC for DCA concentration.
Arterial blood samples were obtained from patients at the following times: • a. Immediately after the insertion of arterial line in operating room (i.e., at beginning of surgery). • b. Thirty minutes after the bolus of DCA has been given, whether or not cardiopulmonary bypass has been discontinued. • c. One hour after discontinuing cardiopulmonary bypass. • d. Six hours after discontinuing cardiopulmonary bypass • e. Twelve hours after discontinuing cardiopulmonary bypass. • f. Twenty four hours after discontinuing cardiopulmonary bypass. At the end of 24 hours, the DCA or placebo infusion was discontinued.
Blood samples were collected from indwelling arterial lines into citrate-containing tubes (0.5 ml blood samples). The samples were spun in the microfuge, the plasma separated, and frozen immediately for later analysis. All plasma samples were stored at -80 degrees centigrade, until further processing. Plasma glucose and lactate were determined using a Sigma glucose kit and a spectrophotometric assay involving lactate dehydrogenase respectively. Plasma fatty acid levels were measured using an ELISA system and WAKO free fatty acid kit.

[5] = system: pediatric patients requiring heart surgery to correct complex congenital heart lesions; assay: Clinical outcome after DCA bolus and 24 hour infusion: Inotrope Score, ICU time, ventilator time (Example C); format: in vivo; set-up: reduction of Inotrope Scores: concentration or dose not given beside the values; details: compared to placebo; for average decrease in Inotrope Score per patient: over the 24 hour period
Description: This study was a randomized, placebo-controlled, double blinded, single surgeon, study of the use of DCA in 51 high-risk pediatric patients requiring heart surgery to correct complex congenital heart lesions.
In this trial, 53 infants were recruited to participate in a study, of which 51 patients met inclusion criteria after parental consent. Two dosing groups resulted from the study team changing the dosing protocol after the data from the initial 10 patients were analyzed. The data from patients number 1 to number 10 was analyzed for DCA therapeutic blood levels and therapeutic effect. A recommendation by the research team was made to increase the bolus dose of DCA and to decrease the infusion dose of DCA to maintain a DCA dose range of 1mM for 24 hours. The intent was to administer the new protocol at patient number 20. The 1997 Epicore power calculations were based on separation of the study groups patients into group A of n = 20 patients and Group B of n = 31 patients
as §3, §4
In both the operating room at the end of cardiopulmonary bypass and in the intensive care unit, parenteral drugs were scored on an hourly basis with 1 point allotted for each level for each bolus or infusion given within the previous hour within the first 24 hours post-operatively. Thus at the end of 24 hours, high scores indicated poorer cardiac function.

[6] = system: patients; assay: Observed side effects of DCA in patients
[7] = Group A, 50mg/kg bolus and 25mg/kg/hour infusion
[8] = Group B, 100mg/kg bolus and 12.5mg/kg/hour infusion

For O=C(O)C(Cl)Cl [DCA, dichloroacetate], the concentration at 1 h [1] was roughly 1000 µM, the mortalities [2] was “no mortalities” and the “shortening fraction (echocardiography)” value [3] was 35%. The concentration at 24 h ([4]; 50 mg/kg, Example C, 24 hour interval (Group A), read-out: optimum mean level of DCA in plasma) was 2.29 mM, the concentration at 24 h ([4]; 50 mg/kg, Group A protocol (50mg/kg bolus, 25mg/kg/hr infusion), 24 hour interval, initial patients, read-out: plasma concentrations of DCA) was greater than 1 mM and the concentration at 1 h ([4]; 50 mg/kg, Group A protocol (50mg/kg bolus, 25mg/kg/hr infusion), after the first hour interval, initial patients, read-out: plasma concentrations of DCA) was less than 1 mM. It also gave a concentration at 12 h ([4]; 50 mg/kg, Group A, 50mg/kg bolus and 25mg/kg/hr infusion, n=9, read-out: Average DCA Plasma Levels, mM at 12 hr) of 1.77 mM, a concentration at 6 h ([4]; 50 mg/kg, Group A, 50mg/kg bolus and 25mg/kg/hr infusion, n=10, read-out: Average DCA Plasma Levels, mM at 6 hr) of 1.13 mM and a concentration at 1 h ([4]; 50 mg/kg, Group A, 50mg/kg bolus and 25mg/kg/hr infusion, n=11, read-out: Average DCA Plasma Levels, mM at 1 hr) of 0.46 mM. It also gave a concentration at 24 h ([4]; 50 mg/kg, Group A, 50mg/kg bolus and 25mg/kg/hr infusion, n=11, read-out: Average DCA Plasma Levels, mM at 24 hr) of 2.72 mM, a concentration at 6 h ([4]; 50 mg/kg, Group A, 50mg/kg bolus and 25mg/kg/hr infusion, patients with greatest degree of clinical benefits, m=5, read-out: Average Optimum Mean of DCA Plasma Levels, mM at 6 hr) of 0.916 mM and a concentration at 12 h ([4]; 50 mg/kg, Group A, 50mg/kg bolus and 25mg/kg/hr infusion, patients with greatest degree of clinical benefits, m=5, read-out: Average Optimum Mean of DCA Plasma Levels, mM at 12 hr) of 1.52 mM. The concentration at 24 h ([4]; 50 mg/kg, Group A, 50mg/kg bolus and 25mg/kg/hr infusion, patients with greatest degree of clinical benefits, m=6, read-out: Average Optimum Mean of DCA Plasma Levels, mM at 24 hr) was 2.29 mM, the concentration at 6 h ([4]; 100 mg/kg, Example C, 1 to 6 hour period (Group B), read-out: optimum mean level of DCA in plasma) was 1 mM and the concentration at 6 h ([4]; 100 mg/kg, Group B, 100mg/kg bolus and 12.5 mg/kg/hr infusion, n not given, read-out: Average Optimum Mean of DCA Plasma Levels, mM at 6 hr) was 1 mM. For the same compound, the concentration at 12 h ([4]; 100 mg/kg, Group B, 100mg/kg bolus and 12.5 mg/kg/hr infusion, n not given, read-out: Average Optimum Mean of DCA Plasma Levels, mM at 12 hr) was 1 mM, the concentration at 24 h ([4]; 100 mg/kg, Group B, 100mg/kg bolus and 12.5 mg/kg/hr infusion, n not given, read-out: Average Optimum Mean of DCA Plasma Levels, mM at 24 hr) was 1 mM and the concentration at 24 h ([4]; 100 mg/kg, Group B, 100mg/kg bolus and 12.5 mg/kg/hr infusion, n=10, read-out: Average DCA Plasma Levels, mM at 24 hr) was 2.23 mM. The concentration at 1 h ([4]; 100 mg/kg, Group B, 100mg/kg bolus and 12.5 mg/kg/hr infusion, n=11, read-out: Average DCA Plasma Levels, mM at 1 hr) was 1.13 mM, the concentration at 6 h ([4]; 100 mg/kg, Group B, 100mg/kg bolus and 12.5 mg/kg/hr infusion, n=11, read-out: Average DCA Plasma Levels, mM at 6 hr) was 0.894 mM and the concentration at 12 h ([4]; 100 mg/kg, Group B, 100mg/kg bolus and 12.5 mg/kg/hr infusion, n=11, read-out: Average DCA Plasma Levels, mM at 12 hr) was 1.43 mM. For the same compound, the concentration at 6 h ([4]; Example C, 1 to 6 hour interval, read-out: DCA plasma level range) was 0.229 to 2.22 mM, the concentration at 12 h ([4]; Example C, 12 hour interval, read-out: DCA plasma level range) was 0.38 to 3.07 mM and the concentration at 12 h ([4]; Example C, 12 hour interval, read-out: optimum mean level of DCA in plasma) was 1.52 mM. The concentration at 24 h ([4]; Example C, 24 hour interval, read-out: DCA plasma level range) was 1.74 to 3.9 mM, the concentration at 1 h ([4]; Group A, 50mg/kg bolus and 25mg/kg/hr infusion, patients with greatest degree of clinical benefits, n not given, read-out: Average Optimum Mean of DCA Plasma Levels, mM at 1 hr) was 1 mM and the concentration at 1 h ([4]; Group B, 100mg/kg bolus and 12.5 mg/kg/hr infusion, patients with greatest degree of clinical benefits, n=7, read-out: Average Optimum Mean of DCA Plasma Levels, mM at 1 hr) was 1.01 mM. The “reduction of time in ICU” value ([5]; Group A, 50mg/kg bolus and 25mg/kg/hour infusion, 23 patients) was 60 h, the “decrease of time in ICU” value [5, 7] was 41% and the “decrease of ventilator time” value [5, 7] was 47%. For the same compound, the “reduction of ventilator time” value [5, 7] was 46 h, the “reduction of Inotrope Scores” value ([5]; Group A, by 1 hour) was 50% and the “reduction of Inotrope Scores” value ([5]; Group A, by 12 hours) was 45%. For the same compound, the “reduction of Inotrope Scores” value ([5]; Group A, by 24 hours) was 38%, the “average decrease in Inotrope Score per patient” value ([5]; Group A) was 44% and the “reduction of time in ICU” value ([5]; Group B, 100mg/kg bolus and 12.5mg/kg/hour infusion, 24 patients) was 50 h. For the same compound, the “decrease of time in ICU” value [5, 8] was 40%, the “decrease of ventilator time” value [5, 8] was 23% and the “reduction of ventilator time” value [5, 8] was 18 h and 19 h. The “reduction of Inotrope Scores” value ([5]; Group B, by 1 hour) was 57%, the “reduction of Inotrope Scores” value ([5]; Group B, by 12 hours) was 49% and the “reduction of Inotrope Scores” value ([5]; Group B, by 24 hours) was 45%. For the same compound, the “average decrease in Inotrope Score per patient” value ([5]; Group B) was 51%, the side-effects ([6]; general observation in patients) was “not have significant side-effects, although some patients experience mild drowsiness” and the “adverse effects of DCA” value ([6]; previous (pilot) studies) was “no adverse effects”.
